Test results from US8568763B2, “Compositions and coatings for delivery of therapeutic agents” (The University of Tennessee Research Foundation, priority 2004, dated 2013).

Legend:
in vivo = details: pig
Protocol: Preimplantation and postexplantation grafts, blood and tissues were sent to the HPLC Drug Monitoring Laboratory at the University of Texas Medical School at Houston, (6431 Fannin, Suite 6.233, Houston Tex. 77030) for rapamycin level quantification. Analyses were performed using HPLC/UV assays developed by Dr Kimberly L. Napoli, the director of the laboratory (Napoli et al., “Distribution of Sirolimus in Rat Tissue,” Clin. Biochem. 30:135-42 (1997), which is hereby incorporated by reference in its entirety). Whole blood was collected on the first three postoperative days and at euthanasia to quantitate systemic exposure to rapamycin. To confirm elution of rapamycin from the ePTFE and deposition of drug in the native arterial wall, explanted grafts and adjacent iliac artery were snap frozen in liquid nitrogen. The tissues were packaged on dry ice and sent for rapamycin quantification. The kinetics of elution were extrapolated by sacrificing nine animals (n=3 per time point) on postoperative day 7, 14 and 28. These animals were separate from the twenty-two animals used to evaluate for changes in neointimal hyperplasia.
Similar drug levels were detected despite sterilization. Similarly, the rapamycin fraction was detected 18 minutes after instilling the sample onto the HPLC column irrespective of sterilization. […] Levels decreased from 1000 μg preimplatation to 26.7 μg at one week post explantation. Drug (2.9 μg/gm) was detected in the adjacent arterial wall on postoperative day 7 and persisted until euthanasia.

[1] = 90 days, rapamycin-eluting stents, Carter et al; cited from earlier work
[2] = blood of patients prophylaxed against kidney transplant rejection; cited from earlier work

CO[C@H]1C[C@@H]2CC[C@@H](C)[C@@](O)(O2)C(=O)C(=O)N2CCCC[C@H]2C(=O)O[C@H]([C@H](C)C[C@@H]2CC[C@@H](O)[C@H](OC)C2)CC(=O)[C@H](C)/C=C(\C)[C@@H](O)[C@@H](OC)C(=O)[C@H](C)C[C@H](C)/C=C/C=C/C=C/1C [Rapamycin, rapamycin]
concentration at 1 day (in vivo; mongrel): 9.3 ± 0.2 ng/mL
concentration at 2 day (in vivo; mongrel): 2 ± 0.1 ng/mL
concentration at 3 day (in vivo; mongrel): 1.9 ± 0.2 ng/mL
Rapamycin level in artery (in vivo; mongrel, 7 day): 2.9 ± 0.8 μg/gm
Rapamycin level in graft (in vivo; mongrel, 14 day): 12.8 ± 5.0 µg
Rapamycin level in graft (in vivo; mongrel, 28 day): 0.005 ± 0.001 µg
Detection of rapamycin in blood (in vivo): not detectable
Elution of rapamycin off grafts (in vivo): majority of rapamycin eluted off grafts by one week
concentration at 7 day (in vivo): 2900 ng/g
concentration at 28 day (in vivo): 25 ng/g
Rapamycin in the arterial wall [1]: 0.32 ng/mg
current therapeutic rapamycin level [2]: 8 to 17 ng/mL
